From publication PMC12862769 (ACS infectious diseases, 2025)
≈ marks a conversion by molar mass, not a printed value. Like-named read-outs stand apart in the source and are kept apart here.

Legend:
[1] = tested on: E. faecalis HM-201; test: MIC assay; format: cell-based
[2] = tested on: E. faecalis HM-934; test: MIC assay; format: cell-based
[3] = tested on: E. faecalis NR-31970; test: MIC assay; format: cell-based
[4] = tested on: E. faecium ATCC 700221; test: MIC assay; format: cell-based
[5] = tested on: E. faecium HM-952; test: MIC assay; format: cell-based
[6] = tested on: E. faecium HM-965; test: MIC assay; format: cell-based
[7] = tested on: E. faecium HM-970; test: MIC assay; format: cell-based
[8] = tested on: E. faecium NR-31909; test: MIC assay; format: cell-based
[9] = tested on: E. faecium NR-31912; test: MIC assay; format: cell-based
[10] = tested on: E. faecium NR-31933; test: MIC assay; format: cell-based
[11] = tested on: E. faecium NR-31937; test: MIC assay; format: cell-based
[12] = tested on: E. faecium NR-31954; test: MIC assay; format: cell-based
[13] = tested on: E. faecium NR-32053; test: MIC assay; format: cell-based
[14] = tested on: E. faecium NR-32094; test: MIC assay; format: cell-based
[15] = tested on: E. avium ATCC 14025; test: MIC assay; format: cell-based
[16] = tested on: E. casseliflavus ATCC 700327; test: MIC assay; format: cell-based
[17] = tested on: E. durans ATCC 11576; test: MIC assay; format: cell-based
[18] = tested on: E. gallinarum ATCC 49373; test: MIC assay; format: cell-based
[19] = tested on: E. hirae ATCC 10541; test: MIC assay; format: cell-based
[20] = tested on: E. raffinosus ATCC 49464; test: MIC assay; format: cell-based
[21] = tested on: E. saccharolyticus ATCC 43076; test: MIC assay; format: cell-based
[22] = tested on: Listeria Monocytogenes ATCC 19111; test: MIC assay; format: cell-based
[23] = tested on: Staphylococcus aureus USA300; test: MIC assay; format: cell-based
[24] = tested on: Staphylococcus epidermidis NRS101; test: MIC assay; format: cell-based
[25] = tested on: Bacillus subtilis ATCC11774; test: MIC assay; format: cell-based
[26] = tested on: E. faecalis and E. faecium strains; test: MIC assay, panel of 25 E. faecalis and E. faecium strains; format: cell-based
[27] = tested on: all tested Enterococcus strains; test: MIC assay, all tested Enterococcus strains; format: cell-based
[28] = tested on: E. faecium NR-31909; test: Multi-step resistance selection assay; format: cell-based; details: starting passage 13
[29] = tested on: E. faecium NR-31909; test: E. faecium septicemic peritonitis mouse model; format: in vivo, BALB/c mice
[30] = tested on: mouse gut microbiome; test: Mouse gut microbiome diversity in fecal pellets; format: in vivo, C57BL/6 mice; details: 20 mg/kg PO QD; CAI0019 days 7 or 14, linezolid day 7, vs pre-treatment
[31] = tested on: E. faecalis HM-334; details: cited from earlier work
[32] = tested on: E. faecalis HM-335; details: cited from earlier work
[33] = tested on: E. faecalis NR-31971; details: cited from earlier work
[34] = tested on: E. faecalis NR-31972; details: cited from earlier work
[35] = tested on: E. faecium HM-968; details: cited from earlier work
[36] = tested on: E. faecium NR-28978; details: cited from earlier work
[37] = tested on: E. faecium NR-31903; details: cited from earlier work
[38] = tested on: E. faecium NR-31914; details: cited from earlier work
[39] = tested on: E. faecium NR-31916; details: cited from earlier work
[40] = tested on: E. faecium NR-32052; details: cited from earlier work
[41] = tested on: E. faecium NR-32065; details: cited from earlier work
[42] = 5% CO2 atmosphere at 37° C, no CAs, expresses MpsAB homologs

With `CC(=O)NC[C@H]1CN(c2ccc(N3CCOCC3)c(F)c2)C(=O)O1` [LNZ, linezolid] the MIC ([1]; 5% CO2 atmosphere at 37° C) was 2.96 µM (≈ 0.999 µg/mL), the MIC ([1]; Enterococcus faecalis, HM201) was 2.96 µM (≈ 0.999 µg/mL) and the MIC ([2]; 5% CO2 atmosphere at 37° C) was 2.96 µM (≈ 0.999 µg/mL). For the same molecule, the MIC ([2]; Enterococcus faecalis, HM934) was 2.96 µM (≈ 0.999 µg/mL), the MIC ([3]; 5% CO2 atmosphere at 37° C) was 2.96 µM (≈ 0.999 µg/mL) and the MIC ([3]; Enterococcus faecalis, NR31970) was 2.96 µM (≈ 0.999 µg/mL). It also gave an MIC ([4]; 5% CO2 atmosphere at 37° C) of 2.96 µM (≈ 0.999 µg/mL), an MIC ([4]; Enterococcus faecium, ATCC700221) of 2.96 µM (≈ 0.999 µg/mL) and an MIC ([5]; 5% CO2 atmosphere at 37° C) of 2.96 µM (≈ 0.999 µg/mL). For the same molecule, the MIC ([5]; Enterococcus faecium, HM952) was 2.96 µM (≈ 0.999 µg/mL), the MIC ([6]; 5% CO2 atmosphere at 37° C) was 2.96 µM (≈ 0.999 µg/mL) and the MIC ([6]; Enterococcus faecium, HM965) was 2.96 µM (≈ 0.999 µg/mL). It also gave an MIC ([7]; 5% CO2 atmosphere at 37° C) of 2.96 µM (≈ 0.999 µg/mL), an MIC ([7]; Enterococcus faecium, HM970) of 2.96 µM (≈ 0.999 µg/mL) and an MIC ([8]; 5% CO2 atmosphere at 37° C) of 2.96 µM (≈ 0.999 µg/mL). It also gave an MIC ([8]; Enterococcus faecium, NR31909) of 2.96 µM (≈ 0.999 µg/mL), an MIC ([9]; 5% CO2 atmosphere at 37° C) of 2.96 µM (≈ 0.999 µg/mL) and an MIC ([9]; Enterococcus faecium, NR31912) of 2.96 µM (≈ 0.999 µg/mL). It also gave an MIC ([10]; 5% CO2 atmosphere at 37° C) of 2.96 µM (≈ 0.999 µg/mL), an MIC ([10]; Enterococcus faecium, NR31933) of 2.96 µM (≈ 0.999 µg/mL) and an MIC ([11]; 5% CO2 atmosphere at 37° C) of 2.96 µM (≈ 0.999 µg/mL). It also gave an MIC ([11]; Enterococcus faecium, NR31937) of 2.96 µM (≈ 0.999 µg/mL), an MIC ([12]; 5% CO2 atmosphere at 37° C) of 2.96 µM (≈ 0.999 µg/mL) and an MIC ([12]; Enterococcus faecium, NR31954) of 2.96 µM (≈ 0.999 µg/mL). It also gave an MIC ([13]; 5% CO2 atmosphere at 37° C) of 2.96 µM (≈ 0.999 µg/mL), an MIC ([13]; Enterococcus faecium, NR32053) of 2.96 µM (≈ 0.999 µg/mL) and an MIC ([14]; 5% CO2 atmosphere at 37° C) of 1.48 µM (≈ 0.499 µg/mL). The MIC ([14]; Enterococcus faecium, NR32094) was 1.48 µM (≈ 0.499 µg/mL), the MIC ([15]; 5% CO2 atmosphere at 37° C) was 2.96 µM (≈ 0.999 µg/mL) and the MIC ([15]; Enterococcus avium, ATCC14025) was 2.96 µM (≈ 0.999 µg/mL). For the same molecule, the MIC ([16]; 5% CO2 atmosphere at 37° C) was 2.96 µM (≈ 0.999 µg/mL), the MIC ([16]; Enterococcus casseliflavus, ATCC700327) was 2.96 µM (≈ 0.999 µg/mL) and the MIC ([17]; 5% CO2 atmosphere at 37° C) was 2.96 µM (≈ 0.999 µg/mL). It also gave an MIC ([17]; Enterococcus durans, ATCC11576) of 2.96 µM (≈ 0.999 µg/mL), an MIC ([18]; 5% CO2 atmosphere at 37° C) of 2.96 µM (≈ 0.999 µg/mL) and an MIC ([18]; Enterococcus gallinarum, ATCC49373|GALLINARUM) of 2.96 µM (≈ 0.999 µg/mL). The MIC ([19]; 5% CO2 atmosphere at 37° C) was 2.96 µM (≈ 0.999 µg/mL), the MIC ([19]; Enterococcus hirae, ATCC10541) was 2.96 µM (≈ 0.999 µg/mL) and the MIC ([20]; 5% CO2 atmosphere at 37° C) was 2.96 µM (≈ 0.999 µg/mL). It also gave an MIC ([20]; Enterococcus raffinosus, ATCC49464) of 2.96 µM (≈ 0.999 µg/mL), an MIC [21] of 2.96 µM (≈ 0.999 µg/mL) and an MIC ([21]; 5% CO2 atmosphere at 37° C) of 2.96 µM (≈ 0.999 µg/mL). For the same molecule, the MIC ([22]; 5% CO2 atmosphere at 37° C, encodes only α-CA, no MpsAB homologs) was 2.96 µM (≈ 0.999 µg/mL), the MIC ([22]; Listeria monocytogenes, ATCC19111) was 2.96 µM (≈ 0.999 µg/mL) and the MIC [23, 42] was 1.48 µM (≈ 0.499 µg/mL). For the same molecule, the MIC ([23]; Staphylococcus aureus, USA300) was 1.48 µM (≈ 0.499 µg/mL), the MIC [24, 42] was 2.96 µM (≈ 0.999 µg/mL) and the MIC ([24]; Staphylococcus epidermidis, NRS101) was 2.96 µM (≈ 0.999 µg/mL). For the same molecule, the MIC ([25]; 5% CO2 atmosphere at 37° C, encodes both MpsAB and CAs) was 1.48 µM (≈ 0.499 µg/mL), the MIC ([25]; Bacillus subtilis, ATCC11774) was 1.48 µM (≈ 0.499 µg/mL) and the MIC50 ([26]; read-out: Ef MIC50) was 2.96 µM (≈ 0.999 µg/mL). For the same molecule, the MIC90 ([26]; read-out: Ef MIC90) was 2.96 µM (≈ 0.999 µg/mL), the “MIC shift in the presence of CO2” value ([27]; 5% CO2 versus ambient air) was “no MIC shift” and the MIC50 ([27]; Enterococcus, read-out: All Enterococci spp. MIC50) was 2.96 µM (≈ 0.999 µg/mL). The MIC90 ([27]; Enterococcus, read-out: All Enterococci spp. MIC90) was 2.96 µM (≈ 0.999 µg/mL), the MIC increase [28] was 2 fold MIC and the “survival (mice rescued)” value ([29]; 20 mg/kg PO once-daily for three days, n = 6/group) was 83%. For the same molecule, the “reduction of VRE bioburden compared to vehicle” value ([29]; kidney, liver and spleen, each tissue, 20 mg/kg PO QD three days) was “at least 2 Log10 CFU/mL”, the “reduction of VRE bioburden” value ([29]; kidney, liver and spleen, three-day treatment) was over 99% and the “change in microbiome diversity in fecal samples” value [30] was “no significant change”. For the same molecule, the MIC ([31]; 5% CO2 atmosphere at 37° C) was 2.96 µM (≈ 0.999 µg/mL), the MIC ([31]; ambient air at 37° C) was 2.96 µM (≈ 0.999 µg/mL) and the MIC ([32]; 5% CO2 atmosphere at 37° C) was 2.96 µM (≈ 0.999 µg/mL). The MIC ([32]; ambient air at 37° C) was 1.48 µM (≈ 0.499 µg/mL), the MIC ([33]; 5% CO2 atmosphere at 37° C) was 2.96 µM (≈ 0.999 µg/mL) and the MIC ([33]; ambient air at 37° C) was 2.96 µM (≈ 0.999 µg/mL). For the same molecule, the MIC ([34]; 5% CO2 atmosphere at 37° C) was 2.96 µM (≈ 0.999 µg/mL), the MIC ([34]; ambient air at 37° C) was 1.48 µM (≈ 0.499 µg/mL) and the MIC ([35]; 5% CO2 atmosphere at 37° C) was 2.96 µM (≈ 0.999 µg/mL). For the same molecule, the MIC ([35]; ambient air at 37° C) was 1.48 µM (≈ 0.499 µg/mL), the MIC ([36]; 5% CO2 atmosphere at 37° C) was 2.96 µM (≈ 0.999 µg/mL) and the MIC ([36]; ambient air at 37° C) was 2.96 µM (≈ 0.999 µg/mL). For the same molecule, the MIC ([37]; 5% CO2 atmosphere at 37° C) was 47.4 µM (≈ 16 µg/mL), the MIC ([37]; ambient air at 37° C) was 47.4 µM (≈ 16 µg/mL) and the MIC ([38]; 5% CO2 atmosphere at 37° C) was 2.96 µM (≈ 0.999 µg/mL). For the same molecule, the MIC ([38]; ambient air at 37° C) was 2.96 µM (≈ 0.999 µg/mL), the MIC ([39]; 5% CO2 atmosphere at 37° C) was 2.96 µM (≈ 0.999 µg/mL) and the MIC ([39]; ambient air at 37° C) was 2.96 µM (≈ 0.999 µg/mL). For the same molecule, the MIC ([40]; 5% CO2 atmosphere at 37° C) was 1.48 µM (≈ 0.499 µg/mL), the MIC ([40]; ambient air at 37° C) was 1.48 µM (≈ 0.499 µg/mL) and the MIC ([41]; 5% CO2 atmosphere at 37° C) was 1.48 µM (≈ 0.499 µg/mL). The MIC ([41]; ambient air at 37° C) was 0.74 µM (≈ 0.25 µg/mL).
